Experiment [1] concerns the target Serotonin 3 (5-HT3) receptor. The experiment is described as follows: Binding affinity towards human 5-hydroxytryptamine 3 serotonin membrane receptor using [3H]GR-65630 at 10 uM.
The target of experiment [2] is Neuronal acetylcholine receptor subunit alpha-7 (Homo sapiens, UniProt P36544). In words: Binding affinity towards human nicotinic acetylcholine receptor alpha 7 expressed in GH4C1 cell using [3H]methyllycaconitine. Type of experiment: cell-based, GH4-C1.
Sequence of Neuronal acetylcholine receptor subunit alpha-7 (P36544 whole entry): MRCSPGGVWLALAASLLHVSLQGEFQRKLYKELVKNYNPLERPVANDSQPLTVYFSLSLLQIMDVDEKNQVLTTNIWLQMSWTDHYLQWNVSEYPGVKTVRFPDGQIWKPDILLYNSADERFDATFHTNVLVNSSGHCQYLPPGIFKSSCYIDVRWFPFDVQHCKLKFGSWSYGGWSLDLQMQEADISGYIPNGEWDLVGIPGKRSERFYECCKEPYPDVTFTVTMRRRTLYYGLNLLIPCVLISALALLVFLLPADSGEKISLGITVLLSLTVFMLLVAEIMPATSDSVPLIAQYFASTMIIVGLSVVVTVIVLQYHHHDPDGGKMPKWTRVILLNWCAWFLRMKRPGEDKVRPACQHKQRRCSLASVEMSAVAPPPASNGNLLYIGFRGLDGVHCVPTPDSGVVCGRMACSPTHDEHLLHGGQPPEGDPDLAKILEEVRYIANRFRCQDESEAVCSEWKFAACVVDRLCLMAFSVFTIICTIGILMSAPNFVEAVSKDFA
Experiment [3] has as its target Serotonin 3 (5-HT3) receptor. In words: Binding affinity for human 5-hydroxytryptamine 3 serotonin membrane receptor using [3H]GR-65630.

A word on the inhibition: it is the share of the control response that was lost under treatment. High values mean a response far below the control, low ones a response near the control. The term Ki denotes a dissociation constant, usually derived from enzyme kinetics or from competition with a known ligand. In experiment [1], `O=C(NC1CN2CCC1CC2)c1ccc(-c2ccccn2)s1` (stereo not given) registered an inhibition of 28%. The same compound came in with a Ki in experiment [2] of 6.9 nM.
For `c1cncc(CNc2cnc3c(c2)C[C@@]2(CN4CCC2CC4)O3)c1`, the affinity in experiment [3], expressed as Ki, was 2220 nM.
As to `O=C(NC1CN2CCC1CC2)c1ccc(-c2ccccc2)s1` (stereo not given), the Ki is 3.4 nM in experiment [2] and 2020 nM in experiment [3].
For `O=C(N[C@@H]1CN2CCC1CC2)c1ccc(-c2ccccc2)s1` the same measures were 26.9 nM and 1550 nM.
As to `O=C(NC1CN2CCC1CC2)c1ccc(-c2cccs2)s1` (stereo not given), the Ki in experiment [2] is 1.1 nM; in experiment [3] it was 1040 nM.
Turning to `c1ccc(-c2cnc3c(c2)C[C@@]2(CN4CCC2CC4)O3)cc1`, the Ki in experiment [2] is 3.1 nM; in experiment [3], 73 nM.
As to `O=C1NC[C@]2(CN3CCC2CC3)O1`, the inhibition in experiment [1] is listed as 2.5%.
Turning to `O=C(NC1CN2CCC1CC2)c1csc(-c2ccccc2)c1` (stereo not given), the Ki is 16.7 nM in experiment [2] and 409 nM in experiment [3].
In experiment [1], `O=C(N[C@H]1CN2CCC1CC2)c1ccc(-c2ccccn2)s1` gave an inhibition of 15.5%. In experiment [2], this compound showed a Ki of 1.3 nM.
For `COc1ccccc1-c1ccc(C(=O)NC2CN3CCC2CC3)s1` (stereo not given), in experiment [1], the inhibition is on record as 27%. This compound also had a Ki in experiment [2] of 268 nM.
For `CC(=O)O.O=C(N[C@H]1CN2CCC1CC2)c1ccc(-c2ccccc2)s1` the same measures were 24% and 1.8 nM.
For `O=C(NC1CN2CCC1CC2)c1cc(-c2ccccc2)sn1` (stereo not given) the same measures were 28% and 4.1 nM.
As for `O=C(NC1CN2CCC1CC2)c1csc(-c2ccccc2)n1` (stereo not given), the Ki in experiment [2] stood at 121 nM; in experiment [3], 665 nM.
On to `O=C(NC1CN2CCC1CC2)c1ccc(-c2ccccc2Cl)s1` (stereo not given), for which the inhibition in experiment [1] is 45%. Moreover, the Ki in experiment [2] turned out to be 525 nM.
Consider `O=C(N[C@H]1CN2CCC1CC2)c1ccc(-c2ccccc2)s1` (racemic), for which the Ki was 3.4 nM in experiment [2] and 2020 nM in experiment [3].
In experiment [1], `CCN1C[C@]2(COC(=O)c3ccccc3N3C(=O)C[C@H](C)C3=O)CC[C@H](OC)[C@@]34[C@@H]5C[C@H]6[C@H](OC)[C@@H]5[C@](O)(C[C@@H]6OC)[C@](O)([C@@H](OC)[C@H]23)[C@@H]14` [METHYLLYCACONITINE] had an inhibition of 16.5%. In experiment [2], the inhibitory constant (Ki) was found to be 7.3 nM.

Source of the values: ChEMBL document CHEMBL1143459, “High affinity ligands for the alpha7 nicotinic receptor that show no cross-reactivity with the 5-HT3 receptor” (Bioorg Med Chem Lett, 2005).
